In patent US6399828B1, “Preparation of amphetamines from phenylpropanolamines” (Boehringer Ingelheim Chemicals, Inc., priority 2001, dated 2002):

Columns and labels:
[1] = Stability of O-acetylnorephedrine hydrochloride stirred with water (rearrangement to N-acetylnorephedrine), HPLC analyses; type: physicochemical
Description: Ammonium formate appears to catalyze the rearrangement of O-acetylnorephedrine hydrochloride to N-acetylnorephedrine. Three samples of O-acetylnorephedrine hydrochloride (Experiment Z recrystallized) were stirred with water for six hours respectively at room temperature, at 60° C., and at 60° C. with ammonium formate added. Samples were taken at intervals for HPLC analyses. […] At 60° C., the percentage of O-acetylnorephedrine hydrochloride decreased from 99.18 to 97.79 with the percentage of N-acetylnorephedrine increasing from 0.21% to 1.1% over a 6 hour period. […] The catalytic hydrogenation route therefore appears to be preferable to catalytic transfer hydrogenation in view of the induction period, gas evolution, and rearrangement potential.

[2] = Solubility of O-acetylnorephedrine hydrochloride in water (Experiment X)

With CC(=O)OC(c1ccccc1)C(C)N.Cl (stereo not shown) [O-acetylnorephedrine hydrochloride, 2-Amino-1-acetoxy1-phenylpropane Hydrochloride] as the molecule, how does the “percentage of O-acetylnorephedrine hydrochloride” value (shortened to “percentage”) ([1]; water with ammonium formate, 60° C., by 6 hours) read?
Its value is 77.20%.

And the “percentage” value ([1]; water with ammonium formate, 60° C., within 30 minutes)?
Its value is 91.23%.

And the “percentage” value ([1]; water, 60° C., after 6 hours)?
The value was 97.79%.

What about the “percentage” value ([1]; water, 60° C., start) of the same molecule?
The value was 99.18%.

And the “percentage” value ([1]; water, room temperature, after 6 hours)?
Its value is 99.12%.

What about the “percentage” value ([1]; water, room temperature, start) of the same molecule?
The value was 99.30%.

What about the solubility in water [2] of the same molecule?
Its solubility in water is 5.5 mL/g.
